# Laboratory results published in patent publication US6608082B1, “Treatment of erectile dysfunction using isoquinoline compound melanocortin receptor ligands” (Lion Bioscience AG, priority 1998, dated 2003).
# Tests used:
# MCR-1 = target: T1, MCR-1 (Homo sapiens, UniProt Q01726); assay: Melanocortin receptor binding assay, competition with 125I-HP 467, HEK 293 cells expressing hMCR-1; details: inhibition of binding of 125I-HP 467, HEK 293 cells expressing MCR-1, TRG 2414 library; for IC50: read-out: MC-1 IC50
# T1 construct: expressed in transfected cells; host or cells: HEK 293
# Procedure, shortened: (§1)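 Test compounds compete on intact HEK 293 cells carrying hMCR-1 (2×10^4 per tube) or hMCR-4 (4×10^3 per tube), suspended in PBS, 10% calf serum, 1 mM CaCl2.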
# MCR-4 = target: T2, MCR-4 (Homo sapiens, UniProt P32245); assay: Melanocortin receptor binding assay, competition with 125I-HP 467, HEK 293 cells expressing hMCR-4; details: inhibition of binding of 125I-HP 467, HEK 293 cells expressing MCR-4, TRG 2414 library; for IC50: read-out: MC-4 IC50
# T2 construct: expressed in transfected cells; host or cells: HEK 293
# Procedure, shortened: as §1
# T2 sequence (P32245 whole entry): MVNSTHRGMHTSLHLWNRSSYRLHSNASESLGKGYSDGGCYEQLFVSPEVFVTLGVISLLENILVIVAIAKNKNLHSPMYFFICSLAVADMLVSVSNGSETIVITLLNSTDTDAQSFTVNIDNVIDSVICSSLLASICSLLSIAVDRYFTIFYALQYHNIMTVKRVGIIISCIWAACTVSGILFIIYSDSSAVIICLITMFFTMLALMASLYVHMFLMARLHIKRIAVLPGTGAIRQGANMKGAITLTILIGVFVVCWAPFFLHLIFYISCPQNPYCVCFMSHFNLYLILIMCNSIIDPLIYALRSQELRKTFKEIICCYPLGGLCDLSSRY
# T1 sequence (Q01726 whole entry): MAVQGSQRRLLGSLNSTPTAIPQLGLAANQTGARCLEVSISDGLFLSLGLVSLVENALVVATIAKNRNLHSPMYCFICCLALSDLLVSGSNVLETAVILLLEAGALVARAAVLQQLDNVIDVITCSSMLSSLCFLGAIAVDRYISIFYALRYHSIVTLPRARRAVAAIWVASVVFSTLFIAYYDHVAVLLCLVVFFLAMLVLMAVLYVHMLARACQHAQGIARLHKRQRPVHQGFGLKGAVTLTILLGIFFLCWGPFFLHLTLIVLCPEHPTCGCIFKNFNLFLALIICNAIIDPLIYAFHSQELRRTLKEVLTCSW
IC50 (MCR-1) [µM],IC50 (MCR-4) [µM],MC-4 IC50 (MCR-4),MC-1 IC50 (MCR-1),SMILES
11.8,16.2,,,CCOc1ccccc1CNCC1c2ccccc2CN(CCCCC(CN)NCCc2ccccc2)C1c1cccc(Oc2ccccc2)c1 (stereo not drawn) [TRG 2414-86]
6.65,11.2,,,CCOc1ccccc1CNCC1c2ccccc2CN(CCCCC(CN)NCc2ccccc2)C1c1cccc(Oc2ccccc2)c1 (stereo not drawn) [TRG 2414-87]
36.5,,no fit,,CCOc1ccccc1CNCC1c2ccccc2CN(CCCCC(CN)NCC(C)c2ccc(CC(C)C)cc2)C1c1cccc(Oc2ccccc2)c1 (stereo not drawn) [TRG 2414-88]
1.26,0.73,,,COc1ccccc1CCNCC1c2ccccc2CN(CCCCC(N)CN)C1c1cccc(Oc2ccccc2)c1 (stereo not drawn) [TRG 2414-89]
3.52,4.06,,,COc1ccccc1CCNCC1c2ccccc2CN(CCCCC(CN)NCCc2ccccc2)C1c1cccc(Oc2ccccc2)c1 (stereo not drawn) [TRG 2414-90]
3.21,2.74,,,COc1ccccc1CCNCC1c2ccccc2CN(CCCCC(CN)NCc2ccccc2)C1c1cccc(Oc2ccccc2)c1 (stereo not drawn) [TRG 2414-91]
6.3,3.8,,,NCC(N)CCCCN1Cc2ccccc2C(CNCCc2cccc(Cl)c2)C1c1cccc(Oc2ccccc2)c1 (stereo not drawn) [TRG 2414-93]
16.9,8.2,,,NCC(CCCCN1Cc2ccccc2C(CNCCc2cccc(Cl)c2)C1c1cccc(Oc2ccccc2)c1)NCCc1ccccc1 (stereo not drawn) [TRG 2414-94]
8.66,5.26,,,NCC(CCCCN1Cc2ccccc2C(CNCCc2cccc(Cl)c2)C1c1cccc(Oc2ccccc2)c1)NCc1ccccc1 (stereo not drawn) [TRG 2414-95]
,50.6,,no fit,CC(C)Cc1ccc(C(C)CNC(CN)CCCCN2Cc3ccccc3C(CNCCc3cccc(Cl)c3)C2c2cccc(Oc3ccccc3)c2)cc1 (stereo not drawn) [TRG 2414-96]
5.86,6.93,,,COc1cccc(CNCC2c3ccccc3CN(CCCCC(CN)NCc3ccccc3)C2c2cccc(Oc3ccccc3)c2)c1 (stereo not drawn) [TRG 2414-99]
,,no fit,no fit,COc1cccc(CNCC2c3ccccc3CN(CCCCC(CN)NCC(C)c3ccc(CC(C)C)cc3)C2c2cccc(Oc3ccccc3)c2)c1 (stereo not drawn) [TRG 2414-100]
2.5,1.26,,,COc1ccc(CNCC2c3ccccc3CN(CCCCC(N)CN)C2c2cccc(Oc3ccccc3)c2)cc1 (stereo not drawn) [TRG 2414-101]
12.2,6.91,,,COc1ccc(CNCC2c3ccccc3CN(CCCCC(CN)NCCc3ccccc3)C2c2cccc(Oc3ccccc3)c2)cc1 (stereo not drawn) [TRG 2414-102]
,46.2,,no fit,COc1ccc(CNCC2c3ccccc3CN(CCCCC(CN)NCC(C)c3ccc(CC(C)C)cc3)C2c2cccc(Oc3ccccc3)c2)cc1 (stereo not drawn) [TRG 2414-104]
3.71,2.68,,,COc1ccc(CCNCC2c3ccccc3CN(CCCCC(N)CN)C2c2cccc(Oc3ccccc3)c2)cc1 (stereo not drawn) [TRG 2414-105]
12.9,10,,,COc1ccc(CCNCC2c3ccccc3CN(CCCCC(CN)NCCc3ccccc3)C2c2cccc(Oc3ccccc3)c2)cc1 (stereo not drawn) [TRG 2414-106]
6.55,8.21,,,COc1ccc(CCNCC2c3ccccc3CN(CCCCC(CN)NCc3ccccc3)C2c2cccc(Oc3ccccc3)c2)cc1 (stereo not drawn) [TRG 2414-107]
,49.2,,no fit,COc1ccc(CCNCC2c3ccccc3CN(CCCCC(CN)NCC(C)c3ccc(CC(C)C)cc3)C2c2cccc(Oc3ccccc3)c2)cc1 (stereo not drawn) [TRG 2414-108]
3.06,0.91,,,NCC(N)CCCCN1Cc2ccccc2C(CNCc2ccccc2)C1c1cccc(Oc2ccccc2)c1 (stereo not drawn) [TRG 2414-109]
11.1,10,,,NCC(CCCCN1Cc2ccccc2C(CNCc2ccccc2)C1c1cccc(Oc2ccccc2)c1)NCCc1ccccc1 (stereo not drawn) [TRG 2414-110]
7.74,13.1,,,NCC(CCCCN1Cc2ccccc2C(CNCc2ccccc2)C1c1cccc(Oc2ccccc2)c1)NCc1ccccc1 (stereo not drawn) [TRG 2414-111]
,51.3,,no fit,CC(C)Cc1ccc(C(C)CNC(CN)CCCCN2Cc3ccccc3C(CNCc3ccccc3)C2c2cccc(Oc3ccccc3)c2)cc1 (stereo not drawn) [TRG 2414-112]
2.96,1.78,,,NCC(N)CCCCN1Cc2ccccc2C(CNC2CCCCCC2)C1c1cccc(Oc2ccccc2)c1 (stereo not drawn) [TRG 2414-113]
8.96,4.83,,,NCC(CCCCN1Cc2ccccc2C(CNC2CCCCCC2)C1c1cccc(Oc2ccccc2)c1)NCCc1ccccc1 (stereo not drawn) [TRG 2414-114]
3.71,5.6,,,NCC(CCCCN1Cc2ccccc2C(CNC2CCCCCC2)C1c1cccc(Oc2ccccc2)c1)NCc1ccccc1 (stereo not drawn) [TRG 2414-115]
53.7,,no fit,,CC(C)Cc1ccc(C(C)CNC(CN)CCCCN2Cc3ccccc3C(CNC3CCCCCC3)C2c2cccc(Oc3ccccc3)c2)cc1 (stereo not drawn) [TRG 2414-116]

IC50 (MCR-1) [µM],IC50 (MCR-4) [µM],MC-4 IC50 (MCR-4),MC-1 IC50 (MCR-1),SMILES
1.93,1.27,,,NCC(N)CCCCN1Cc2ccccc2C(CNC2CCCCC2)C1c1cccc(Oc2ccccc2)c1 (stereo not drawn) [TRG 2414-117]
5.01,4.77,,,NCC(CCCCN1Cc2ccccc2C(CNC2CCCCC2)C1c1cccc(Oc2ccccc2)c1)NCc1ccccc1 (stereo not drawn) [TRG 2414-119]
25,58.8,,,CC(C)Cc1ccc(C(C)CNC(CN)CCCCN2Cc3ccccc3C(CNC3CCCCC3)C2c2cccc(Oc3ccccc3)c2)cc1 (stereo not drawn) [TRG 2414-120]
8.13,27.8,,,NCC(N)CCCCN1Cc2ccccc2C(CNCc2ccccc2C(F)(F)F)C1c1ccc(Oc2ccccc2)cc1 (stereo not drawn) [TRG 2414-121]
,55.5,,no fit,NCC(CCCCN1Cc2ccccc2C(CNCc2ccccc2C(F)(F)F)C1c1ccc(Oc2ccccc2)cc1)NCCc1ccccc1 (stereo not drawn) [TRG 2414-122]
17.6,,no fit,,NC[C@H](CCCCN1Cc2ccccc2C(CNCc2ccccc2C(F)(F)F)C1c1ccc(Oc2ccccc2)cc1)NCc1ccccc1 (stereo partly drawn) [TRG 2414-123]
,,no fit,no fit,CC(C)Cc1ccc(C(C)CNC(CN)CCCCN2Cc3ccccc3C(CNCc3ccccc3C(F)(F)F)C2c2ccc(Oc3ccccc3)cc2)cc1 (stereo not drawn) [TRG 2414-124]
0.7,8.08,,,CCOc1ccccc1CNCC1c2ccccc2CN(CCCCC(N)CN)C1c1ccc(Oc2ccccc2)cc1 (stereo not drawn) [TRG 2414-125]
6.43,18.7,,,CCOc1ccccc1CNCC1c2ccccc2CN(CCCCC(CN)NCCc2ccccc2)C1c1ccc(Oc2ccccc2)cc1 (stereo not drawn) [TRG 2414-126]
2.14,26.8,,,CCOc1ccccc1CNCC1c2ccccc2CN(CCCCC(CN)NCc2ccccc2)C1c1ccc(Oc2ccccc2)cc1 (stereo not drawn) [TRG 2414-127]
4.63,13.4,,,COc1ccccc1CCNCC1c2ccccc2CN(CCCCC(CN)NCCc2ccccc2)C1c1ccc(Oc2ccccc2)cc1 (stereo not drawn) [TRG 2414-130]
1.65,14.6,,,COc1ccccc1CCNCC1c2ccccc2CN(CCCCC(CN)NCc2ccccc2)C1c1ccc(Oc2ccccc2)cc1 (stereo not drawn) [TRG 2414-131]
27.4,,no fit,,COc1ccccc1CCNCC1c2ccccc2CN(CCCCC(CN)NCC(C)c2ccc(CC(C)C)cc2)C1c1ccc(Oc2ccccc2)cc1 (stereo not drawn) [TRG 2414-132]
5.8,15.9,,,NCC(N)CCCCN1Cc2ccccc2C(CNCCc2cccc(Cl)c2)C1c1ccc(Oc2ccccc2)cc1 (stereo not drawn) [TRG 2414-133]
40.2,,no fit,,NCC(CCCCN1Cc2ccccc2C(CNCCc2cccc(Cl)c2)C1c1ccc(Oc2ccccc2)cc1)NCCc1ccccc1 (stereo not drawn) [TRG 2414-134]
10.1,46,,,NCC(CCCCN1Cc2ccccc2C(CNCCc2cccc(Cl)c2)C1c1ccc(Oc2ccccc2)cc1)NCc1ccccc1 (stereo not drawn) [TRG 2414-135]
,,no fit,no fit,CC(C)Cc1ccc(C(C)CNC(CN)CCCCN2Cc3ccccc3C(CNCCc3cccc(Cl)c3)C2c2ccc(Oc3ccccc3)cc2)cc1 (stereo not drawn) [TRG 2414-136]
1.21,5.26,,,COc1cccc(CNCC2c3ccccc3CN(CCCCC(N)CN)C2c2ccc(Oc3ccccc3)cc2)c1 (stereo not drawn) [TRG 2414-137]
10.6,16.6,,,COc1cccc(CNCC2c3ccccc3CN(CCCCC(CN)NCCc3ccccc3)C2c2ccc(Oc3ccccc3)cc2)c1 (stereo not drawn) [TRG 2414-138]
0.788,12.6,,,COc1cccc(CNCC2c3ccccc3CN(CCCCC(CN)NCc3ccccc3)C2c2ccc(Oc3ccccc3)cc2)c1 (stereo not drawn) [TRG 2414-139]
37,,no fit,,COc1cccc(CNCC2c3ccccc3CN(CCCCC(CN)NCC(C)c3ccc(CC(C)C)cc3)C2c2ccc(Oc3ccccc3)cc2)c1 (stereo not drawn) [TRG 2414-140]
2.04,4.21,,,COc1ccc(CNCC2c3ccccc3CN(CCCCC(N)CN)C2c2ccc(Oc3ccccc3)cc2)cc1 (stereo not drawn) [TRG 2414-141]
4.38,11.3,,,COc1ccc(CNCC2c3ccccc3CN(CCCCC(CN)NCCc3ccccc3)C2c2ccc(Oc3ccccc3)cc2)cc1 (stereo not drawn) [TRG 2414-142]
2.35,14,,,COc1ccc(CNCC2c3ccccc3CN(CCCCC(CN)NCc3ccccc3)C2c2ccc(Oc3ccccc3)cc2)cc1 (stereo not drawn) [TRG 2414-143]
,,no fit,no fit,COc1ccc(CNCC2c3ccccc3CN(CCCCC(CN)NCC(C)c3ccc(CC(C)C)cc3)C2c2ccc(Oc3ccccc3)cc2)cc1 (stereo not drawn) [TRG 2414-144]
2.05,3.47,,,COc1ccc(CCNCC2c3ccccc3CN(CCCCC(N)CN)C2c2ccc(Oc3ccccc3)cc2)cc1 (stereo not drawn) [TRG 2414-145]
1.63,8.5,,,COc1ccc(CCNCC2c3ccccc3CN(CCCCC(CN)NCc3ccccc3)C2c2ccc(Oc3ccccc3)cc2)cc1 (stereo not drawn) [TRG 2414-147]
